Measurements: patent US12065699B2, “Monitoring and diagnosis for immunotherapy, and design for therapeutic agent” (Repertoire Genesis Incorporation, priority 2016, dated 2024)

What was measured:
[1] = tested on: CD8 positive cells; experiment: intracellular interferon γ staining (flow cytometry); format: cell-based, human; design: key: ++ refers to a sample found to produce interferon γ in 3/3; + refers to a sample found to produce interferon γ in ⅓ to ⅔; conditions: 5×10^5 lymphocytes, peptide 1 μg/ml, 4 hours
Experimental: (§1) Peripheral blood of healthy individuals with the same HLA-A*02:01 as the subject sample (tumor patient) was used. An experiment of reactivity was conducted using peptides that were manufactured therefor.
The obtained samples were subjected to intracellular interferon γ staining. 5×10^5 lymphocytes were stimulated and cultured for 4 hours in a 200 μl medium. Neoantigen peptides and control peptides were added so that the final concentration was 1 μg/ml for stimulation. An unstimulated control was also prepared. BioLegend Brefeldin A Solution (1,000×) was added so that the final concentration would be 5.0 μg/ml during stimulation. After the completion of culturing, the cells were collected and stained for 30 minutes at 4° C. with Fixable Viability Dye eFluor780 (eBioscience 65-0865-18), FITC labeled anti-CD4 antibody (BD Pharmingen™557307), ECD labeled anti-CD8 antibody (BECKMAN COULTER 41116015) and PerCP-CY5.5 labeled anti-CD3 antibody (Biolegend 300430).
The cells were treated for 15 minutes with Intraprep permeabilization reagent (Immunotech, Marseille, France). The cells were stained for 15 minutes with PE labeled anti-IL-2 antibody (BD Pharmingen™559334), Alexa700 labeled anti-TNFα antibody (BD Pharmingen™557996), and Pacific Blue labeled anti-IFN-γ antibody (Biolegend 502522)
After suspension into PBS containing 0.5% PFA, measurement was taken with Gallios flow cytometer (BECKMAN COULTER). For intracellular flow cytometry sorting, CD8 positive cells were used to analyze the production of interferon γ.

[2] = tested on: peripheral blood of healthy individuals with HLA-A*02:01; experiment: interferon γ ELISPOT assay; format: cell-based, human; design: key: ++ refers to a sample found to produce interferon γ in 3/3; + refers to a sample found to produce interferon γ in ⅓ to ⅔; conditions: 1×10^5 cells stimulated 16 hours; HLA-A*02:01 healthy donor peripheral blood
Experimental: as §1
The conducted assay performed interferon γ ELISPOT and intracellular interferon γ staining. For the interferon γ ELISPOT, MABTECH anti-human IFN-γ mAb 1-D1K, purified (3420-3-250) was used as a capture antibody. In addition, MILLIPORE MultiScreen HTS 96-well Filtration Plate was used.
Briefly stated, the following was performed. • (1) Cytokine (interferon-γ in this example) specific monoclonal antibodies (MABTECH anti-human IFN-γ mAb 1-D1K, purified (3420-3-250)) were immobilized on the solid layer surface. MILLIPORE MultiScreen HTS 96-well Filtration Plate was used in this example. • (2) 1×10^5 cells were stimulated and cultured for 16 hours after washing. The secreted cytokines, i.e., interferon-γ, were bound to capture antibodies (Detection antibody; MABTECH anti-human IFN-γ mAb 7-B6-1, biotinylated (3420-6-250)) that were around the producing cells. After removing the cells by washing, anti-interferon γ antibodies for detection were added.
For biotin labeled detection antibodies, enzyme labeled streptavidin (MABTECH Streptavidin-HRP (3310-9)) was added. • (3) Next, BD ELISPOT AEC Substrate Set (551951) was used for coloration. This method allows the spot corresponding to the position where interferon γ (cytokine) producing cell was located to be seen. The obtained spots were counted with a Carl Zeiss KS ELISPOT (Minerva Tech). The frequency of positive cells was recorded. (Intracellular Interferon γ Staining)

Row | Substance | IFNγ secretion Intra [1] | IFNγ secretion ELISPOT [2]
1 | 7 (VLNINDNEPV) [compound 7] | ++ | 
2 | 12 (NLKKLLVF) [compound 12] |  | ++
3 | 18 (ICFLALECLAH) [compound 18] |  | ++
4 | 21 (QLLEPEISFL) [compound 21] | ++ | 
5 | 27 (KVLQLLEPEI) [compound 27] | + | 
6 | 30 (ALYPFEFRS) [compound 30] | + | 
7 | 36 (ILQEYREDFV) [compound 36] | + | 
8 | 42 (KTFTYSSAL) [compound 42] |  | ++
9 | 43 (FQYSSPALPT) [compound 43] |  | ++
10 | FLALECLAHL [pepID 14] | ++ | ++
11 | FTYSSALKV [pepID 41] | ++ | ++
12 | NISSRIHTV [pepID 33] | ++ | +
